The results in this text go back to patent publication US20250346643A1, “TROPOMYOSIN KINASE RECEPTOR (TRK) LIGANDS AS THERAPEUTICS TO SUPPORT LIVER REGENERATION” (Vanderbilt University, priority 2024, published 2025).

Data set [1] deals with AML12 cells. Put plainly: Cell proliferation assay (CellTiter-Glo) in AML12 cells. The format is cell-based, mouse. Conditions: NTF3 20 ng/ml, AML12 (FIG. 9E-F). Here is the method:
Cell lines. Human HepG2 (ATCC HB-8065) were maintained in MEM media with 10% FBS and the mouse hepatocyte cell line AML12 (ATCC, Manassas, VA; CRL-2254) in DMEM/F12 media supplemented with dexamethasone (40 ng/ml) and Insulin-Transferrin-Selenium (Gibco, Waltham, MA; 41400045), containing 10% FBS and 1% penicillin and streptomycin. JS1 (RRID: CVCL_C7PL), LX2 (RRID: CVCL_5792, MilliporeSigma, Burlington, MA; SCC064) and TWNT4 (RRID: CVCL_W296) cells were cultured in DMEM supplemented with 10% FBS. 293T cells (ATCC, Manassas, VA; CRL-3216) were cultured in DMEM supplemented with 10% FBS.
Cell proliferation assays. Primary mouse hepatocytes, HepG2 or AML 12 cells were grown in opaque-walled 96-well plates. NTF3 (final concentration 20 ng/ml) (STEMCELL Technologies, Vancouver, Canada; cat. 78074) and/or Loxo-195 (final concentration 5 nM) (Selleckchem, Houston, TX; S8636) were added into complete growth media without L-glutamine. Primary mouse hepatocytes were also grown in serum-free William's E media without supplements. Cells were analyzed by CellTiter-Glo® (Promega G7570, Madison, WI) which detects the number of viable cells on day 0 to day 5 by on detection systems GloMax® (Promega) or Bioteck Synergy H1 (Agilent, Santa Clara, CA). Mouse recombinant HGF (Abcam, Cambridge, UK; ab281797) was added to cell culture media at a final concentration 5 ng/ml. […]

For data set [2], the system named is liver regeneration after partial hepatectomy. The format is in vivo, mouse. The protocol:
Partial hepatectomy. All surgeries were performed per the National Institutes of Health recommendations contained in the Guide for the Care and Use of Laboratory. Mice were anesthetized with isoflurane and received preoperative extended-release buprenorphine subcutaneous (s.c.) for analgesia and eye ointment for protection. […] The evisceration of the median and left lateral lobes allowed suture ligation and ˜70% hepatectomy. Skin and abdominal muscles were closed in a two-step procedure. Mice were euthanized 1 h, 24 h, 2 days, 3 days, and 4 days after partial hepatectomy, and tissues were collected for processing. To test if recombinant NTF3 promotes liver regeneration, mice were injected intravenous (i.v.) with recombinant NTF3 (STEMCELL Technologies, Vancouver, Canada; catalog no. 78074, lot nos. 1000070683 and 1000077434) diluted in sterile 0.9% saline (0.9% NaCl) or vehicle only at approximately 1 hour prior to partial hepatectomy. Mice were then injected i.v. once per day with recombinant NTF3 or vehicle at 20 ng/g body weight until sacrifice. Lyophilized NTF3 was solubilized in 0.1% BSA/PBS (Sigma-Aldrich, St. Louis, MO; A3059) and stored at −80° C. until use.
Serum chemistry. Whole blood was collected in blood collection tubes supplemented with lithium heparin (BD vacutainer, Franklin Lakes, NJ; Cat.366664). Blood was centrifuged at 4000 g for 15 min and the plasma collected and stored at −80° C. until analysis. Plasma was analyzed on a VetScan® vs2 (Abaxis, Union City, CA) using mammalian liver profile analysis discs (Abaxis, Union City, CA; 500-0040) according to the manufacturer's instructions.
Immunohistochemistry. For immunohistochemistry, formalin-fixed paraffin-embedded (FFPE) sections were cut at a 4-μm thickness, and slides were incubated at 65° C. for 30 min. Slides were deparaffinized in Histo-Clear® (National Diagnostics, Charlotte, NC; HS2001GLL) and rehydrated by an ethanol gradient. Heat antigen retrieval was performed in 10 mM sodium citrate (pH 6.0) in a pressure cooker (Cuisinart®, CPC-600C), for 20 min at high pressure, natural pressure release for 30 min, and cooled at room temperature for 30 min. Endogenous peroxidase quenching was performed with 1.5% hydrogen peroxide (Sigma-Aldrich, St. Louis, MO; H1009) for 20 min, and slides were washed twice in PBS. Blocking was performed for 30 min with Protein Block, Serum-free (Agilent, Santa Clara, CA; X090930-2). The primary antibody was diluted in antibody diluent (Agilent, Santa Clara, CA; S080983-2) and applied to the slides in a wet chamber overnight at 4° C. After two washes in PBS, slides were incubated with the appropriate secondary antibody for 30 min, followed by two washes in PBS. […] The same reveal time was then used on all experimental slides. Slides were stained with hematoxylin (Sigma-Aldrich, St. Louis, MO; GHS332) for 30 s, washed gently in lukewarm tap water for 5 min, and washed twice in distilled water, followed by two washes in PBS (pH 7.4). Slides were washed in increasing ethanol/water gradients, followed by three washes in Histo-Clear®. Whole-slide scans for subsequent analyses and publishing were obtained using an SCN400 slide scanner (Leica, Wetzlar, Germany). Whole-slide images were processed and annotated in QuPath 0.5.1.

[3] abbreviates: 2 days after partial hepatectomy, NTF3 20 ng/g i.v. once per day.
Setting [4] is: 4 days after partial hepatectomy, NTF3 20 ng/g i.v. once per day.

Like-named read-outs stand apart in the source and are kept apart here.

Turning to “NTF3: neurotrophin-3, recombinant protein; HSC-derived hepatocyte mitogen, ligand of TRKA, TRKB, TRKC”, the cell proliferation result in data set [1] was “greatly stimulated cell proliferation”. Moreover, in data set [2] (setting [3]), the “liver to body weight ratio vs vehicle” value is “similar” and the “number of Ki67+ hepatocytes vs vehicle” value is “significantly increased”. In addition, the “number of Ki67+ hepatocytes vs vehicle” value in data set [2] (4 days after partial hepatectomy) is on record as “increased number”. In addition, in data set [2] (setting [4]), the “liver to body weight ratio vs controls” value is on record as “significantly increased” and the “relative increase of liver to body weight ratio compared to controls” value was 10-23%. Also, in data set [2] (mouse, in vivo), the adverse effects result was “no adverse effects”, the “serum ALP vs vehicle” value is “similar”, the “serum ALT vs vehicle” value is recorded as “similar” and the “serum albumin vs vehicle” value is reported as “similar”.
